Peptide text beside a SMILES is read from it.
Assays:
Type in all cases: cell-based
human kidney cell (HK-2) = experiment: alamarBlue cytotoxicity assay; settings: at 1.56 μM, 24 h
Description: (§1) (i) Cell culture. Human skin keratinocytes (HaCaT), human kidney (HK-2), and RAW 264.7 macrophage cells were obtained from the Bioresource Collection and Research Center (BCRC, Hsinchu, Taiwan). HaCaT and […] macrophage cells were cultured in Dulbecco’s modified Eagle’s medium (DMEM, Thermo Fischer, MA, USA.) supplemented with 10% FBS, penicillin (100 U/mL), and streptomycin (100 μg/mL) at 37°C under 5% CO2. HK-2 cells were cultured in glucose-free Keratinocyte serum-free medium (K-SFM) supplemented with 0.05 mg/mL bovine pituitary extract (BPE), 5 ng/mL EGF, 100 U/mL penicillin, and […] streptomycin at 37°C in 5% CO2 ([49]).
(§2) In vitro toxicity assay. The cytotoxicity of TP4-3 was evaluated by an alamarBlue assay. HaCaT, HK-2, and RAW 264.7 macrophage cells were seeded at densities of 1 × 10^4 cells/well in 96-well cell plates and treated with the indicated concentrations of TP4 and TP4-3 for 24 h (0.78 to 100 μM). Cells treated with 0.1% Triton X-100 and culture medium served as negative and positive-control groups, respectively. After incubation, the cells were washed and incubated for 2 h at 37°C with 90 μL Dulbecco’s modified Eagle medium (DMEM) containing 10 μL alamarBlue reagent. Fluorescence was recorded using a Spectra Max i3 Multi-Mode detection platform (Molecular Devices, San Jose, CA) to measure cell viability ([50], [51]).

[1] = system: murine macrophage (RAW 264.7); experiment: alamarBlue cytotoxicity assay; settings: at 1.56 μM, 24 h
Description: as §1, §2

[2] = system: human keratinocyte (HaCaT); experiment: alamarBlue cytotoxicity assay; settings: at 0.78 μM, 24 h
Description: as §1, §2

human red blood cells = system: human red blood cells
Description: The hemolytic assay was performed after approval from the institutional ethics committee (Academia Sinica Institutional Review Board [IRB]; ID no. AS-IRB02-111075). Blood was collected from healthy humans, and 50 μL of a 2% blood cell suspension in normal saline was treated with an equal volume of peptide at different concentrations. The mixture was then incubated at 37 ± 2°C for 1 h. Next, the cell suspension was centrifuged at 1,000 × g for 10 min. Percent hemolysis was estimated by the absorbance of treated and control supernatant samples at 540 nm ([23], [44]).

For `CC[C@H](C)[C@H](NC(=O)[C@H](C)NC(=O)[C@H](CCCCN)NC(=O)CNC(=O)[C@H](C)NC(=O)[C@H](CO)NC(=O)[C@H](Cc1ccccc1)NC(=O)[C@H](CC(C)C)NC(=O)CNC(=O)CNC(=O)[C@@H](NC(=O)[C@@H](NC(=O)[C@H](Cc1cnc[nH]1)NC(=O)[C@H](Cc1cnc[nH]1)NC(=O)[C@@H](NC(=O)[C@@H](N)Cc1ccccc1)[C@@H](C)CC)[C@@H](C)CC)[C@@H](C)CC)C(=O)N[C@@H](Cc1cnc[nH]1)C(=O)N[C@@H](CCCNC(=N)N)C(=O)N[C@@H](CC(C)C)C(=O)N[C@H](C(=O)N[C@@H](CCCNC(=N)N)C(=O)N[C@@H](CCCNC(=N)N)C(=O)N[C@@H](CCCNC(=N)N)C(=O)N[C@@H](CCCNC(=N)N)C(=O)N[C@@H](CCCNC(=N)N)C(=O)O)[C@@H](C)CC` [TP4, tilapia piscidin 4] (H-FIHHIIGGLFSAGKAIHRLIRRRRR-OH), the cell death (human kidney cell (HK-2)) was “substantial cell death”, the cell death [1] was “substantial cell death” and the cell death [2] was “substantial cell death”. The 15% hemolysis concn (human red blood cells) was <3.13 µM.
